The record followed here is patent US8653071B2, “α4β2 neuronal nicotinic acetylcholine receptor ligands” (Suven Life Sciences Limited, priority 2009, dated 2014).

Data set [1] in a line: Rodent pharmacokinetic study. The note with it: Wistar, in vivo, Wister rat/Male. The class given is in vivo. Put shortly: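 Rats, fasted overnight, received NCE orally (15 or 5 mg/kg) and intravenously (5 mg/kg) on day 0 and day 2. Jugular blood sampled pre-dose to 24 h (n=3); plasma NCE measured by LC-MS/MS. Cmax, Tmax, AUCt, T1/2 and bioavailability derived by non-compartmental analysis.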

A short description of the next data set: in vivo. The note with it: male, Wistar, rat, po, 15 mg/kg.
In data set [2] the target is Nicotinic Acetylcholine α4β2 Receptor (UniProt P09483+P12390). The data set can be described thus: Binding assay for human or rat nicotinic acetylcholine α4β2 receptor ([3H]Cytisine displacement). The note with it: [3H]Cytisine 2.5 nM; rat brain frontal cortex or recombinant human receptor in CHO cells (not specified which); read-out: Ki.
Data set [3] has as its system Male Sprague Dawley rats. The data set can be described thus: Effect of test compounds on body weight gain in high fat fed rats. The note with it: oral for 14 days, high fat diet fed rats. The data set is classed as in vivo, rat. The text has this: Effect of Test Compounds on Body Weight Gain in High Fat Fed Rats
The body weight gain suppressing properties of compounds of this invention were studied using a animal model of obesity.
Male Sprague Dawley rats (150-160 grams) obtained from Reliance Life Sciences, India were used as experimental animals. Rats were fed with control diet (normal pellet diet) and lard based high fat diet (45% kcal diet) for 7-8 weeks. High fat diet fed animals was randomized according to their body weights. The animals were housed in a group of 3-4 per cage. One group of 10 rats received vehicle (2 mL/Kg) orally and another set of animals received compound of the formula (I) orally for 14 days. Body weight of the animals was recorded for first three consecutive days then it was recorded twice weekly. Weighed amount of food was given to the animals and food intake was recorded every 24 hour for the entire study period.

In data set [4] the test system is Male Wister rats. Nature of the data set: Reversal of formalin induced nociception. The class given is in vivo. The note with it: p.o.; rat. The protocol: Reversal of Formalin Induced Nociception
The anti-nociceptive properties of compounds of this invention were evaluated using a model of pain: the Formalin Induced Nociception model. Male Wister rats (230-280 grams) obtained from N. I. N. (National Institute of Nutrition, Hyderabad, India) was used as experimental animals.
Rats were habituated for 20 minutes in the arena before the experiment was started. Duration of licks, bites and flinches were noted from 0-10 minutes and 20-35 minutes after administration of formalin, subplantar into the right hind paw at concentrations of 5% v/v. 50 μL of water for injection was injected into the right hind paw of the rats of the sham group. Compounds of this invention were administered orally prior to formalin administration.

Data set [5] has as its system Male Wister rats. The data set can be described thus: Acute food intake study (animal model of hyperphagia). The data set is classed as in vivo, rat. The note with it: oral. Here is the method: The appetite suppressing properties of compounds of this invention were studied using an animal model of hyperphagia.
Male Wister rats (200-210 grams) obtained from Raj Biotech, India were used as experimental animals. The experiment consisted of 6 days. The rats were adapted to the 18 hour fasting and 6 hour feeding pattern. The animals were housed in a group of three in the cages provided with the fasting grills and were fasted for 18 hours. After 18 hour fasting the rats were separated and placed individually in a cage. Weighed amount of feed was provided to rats for 6 hour and the feed intake at 1, 2, 4 and 6 hours was recorded. Again the rats were regrouped and fasted for 18 hour. The above procedure was followed for 5 days. The average cumulative food intake by the rats on the last 3 days was calculated. Animals were randomised on the basis of their last three days food intake.
One group of 8 rats received vehicle (2 mL/Kg) orally and another set of animals received compound of the formula (I) orally. Then the rats were given access to food and the food intake at 1, 2, 4 and 6 hours was recorded. The food intake by the rats treated with test compound was compared with the vehicle treated group by using students‘t’ test.

The test system of data set [6] is Male Sprague Dawley rats. The data set can be described thus: DRL-72s model of animal depression. The data set is classed as in vivo. The note with it: p.o.; rat. Here is the method: The antidepressant properties of compounds of this invention were evaluated using a model of animal depression: the DRL-72s model. Male Sprague Dawley rats were used as experimental animals. Rats are trained to lever press for a 4″ access to 0.025 ml of water for each correct response during daily 60 minute sessions. All testing takes place on weekdays only. At the beginning of each session, the house light is illuminated and remains lit until the session ends. No other stimuli are presented during testing. After successful lever press training, rats are then required to respond under a DRL-24 second schedule, where only lever presses that are separated by 24 seconds are reinforced. Upon stable responding on a DRL-24 second schedule (5-10 sessions), rats are trained on a DRL-72 second schedule until responding stabilizes at approximately 15% efficiency (approx 25-35 sessions). Specifically, rats receive a reinforcer for each response that is emitted at least 72 seconds after the previous response (IRT). […] Efficiency is recorded as number of reinforced responses÷total number of responses. After stable baseline responding is achieved, defined as responding for 4 consecutive sessions with no more than 10% variability, animals begin drug testing. Animals receive drug no more than 1× per week.

Each structure is given as a SMILES string.

Procedure for in vivo: Rodent Brain Penetration Study
Three animals were housed in each cage. Animals were given water and food ad libitum throughout the experiment, and maintained on a 12 hours light/dark cycle.
NCE compound was dissolved in water and administered orally. At Tmax (0.5, 1.0 and 2.0) animals were sacrificed to collect the plasma and brain tissue and were homogenized. Plasma and Brain was stored frozen at −20° C. until analysis. The concentrations of the NCE compound in plasma and Brain were determined using LC-MS/MS method.
The NCE compounds were quantified in plasma and brain homogenate by validated LC-MS/MS method using solid phase extraction technique. NCE compounds were quantified in the calibration range of 1-500 ng/mL in plasma and brain homogenate. Study samples were analyzed using calibration samples in the batch and quality control samples spread across the batch. Extents of brain-blood ratio were calculated (Cb/Cp).

For the compound `CNCC1CC2CC2N1c1cccnc1.Cl` (centres unmarked) [Example 4, N-[2-(Pyridin-3-yl)-2-azabicyclo[3.1.0]hex-3-ylmethyl]methylamine hydrochloride], in data set [1] (5 mg/kg, Intravenous), the area under the curve AUC(0-t) amounted to 1670 ± 154 ng·h/mL, the peak concentration (Cmax) is 956 ± 164 ng/mL, the time of peak concentration (Tmax) was 0.08 h and the half-life is 5.82 ± 0.53 h. Besides, in data set [1] (15 mg/kg Per-Oral vs 5 mg/kg Intravenous), the bioavailability stood at 105 ± 9%. Further, in data set [1] (15 mg/kg, Per-Oral), the exposure AUC(0-t) turned out to be 5280 ± 652 ng·h/mL, the peak level (Cmax) was 1560 ± 294 ng/mL, the time to peak (Tmax) came out at 0.33 ± 0.14 h and the half-life was 4.48 ± 0.76 h. Besides, the Kp in “in vivo” worked out at 11.7 ± 2.66. The Ki in data set [2] was 59.4 nM. Moreover, in the data set on Male Sprague Dawley rats [3], the Inference entry is reported as “Active”. In addition, the “% Reduction in body weight gain compared to vehicle (Day 14)” value in the data set with Male Sprague Dawley rats [3] (Day 14) is given as 3.3%. The “Dose (reversal of formalin induced nociception)” value in the data set on Male Wister rats [4] is on record as “≦10 mg/kg, p.o”. The Inference result in the data set with Male Wister rats [5] is “Active”. Besides, the “% Suppression of food intake compared to vehicle, 1 Hour” value in the data set on Male Wister rats [5] (1 Hour, 18 hour fasted rats) was 38.45%. Also, the “% Suppression of food intake compared to vehicle, 2 Hour” value in the data set with Male Wister rats [5] (2 Hour, 18 hour fasted rats) was 30.23%. For the same compound, the “% Suppression of food intake compared to vehicle, 4 Hour” value with Male Wister rats [5] (4 Hour, 18 hour fasted rats) came to 25.60%. Moreover, in the data set with Male Wister rats [5] (6 Hour, 18 hour fasted rats), the “% Suppression of food intake compared to vehicle, 6 Hour” value worked out at 18.63%. Moreover, in the data set on Male Sprague Dawley rats [6], the “Dose (DRL-72s)” value was “≧10 mg/kg, p.o”.

A word on the AUC(0-t): it is exposure summed from dosing to a finite time, without extrapolation to infinity. As a reminder, the Cmax is the peak of the concentration-time curve. The Tmax is the time at which the peak concentration occurs. As usually defined, the half-life is how long it takes for the measured level to halve. A lower half-life goes with fast loss. What is called Ki is a measure of affinity in units of concentration, obtained from inhibition or displacement.
